Results taken from US20200390755A1, “COMPOUND FOR TREATING NERVOUS SYSTEM DISEASES AND USE THEREOF” (SHAANXI MICOT TECHNOLOGY CO., LTD., priority 2018, published 2020).

Legend:
[1] = test system: AKT signaling pathway; experiment: Western blotting of p-AKT and t-AKT in primary cortical neuron cells; type: cell-based, mouse; conditions: 500 nM, 10 min at 37° C., Vehicle = 100, n = 3
Description: N171-82Q WT male mice were mated with female B6C3F1/J hybrid mice. B6C3F1/J mice 18 days after pregnancy were anesthetized with isoflurane and dissected to remove embryos, which were then placed in a 10 cm Petri dish containing Leibovitz's buffer. The head of the embryo was cut off, and the brain was peeled off to obtain the whole mouse brain, which was then placed in a new 10 cm Petri dish containing Leibovitz's buffer. The neurocortex of the brain was separated and placed in a 15 mL centrifuge tube containing 3 mL Leibovitz's buffer. The centrifuge tube was centrifuged at 1000 rpm for 1 minute, and the Leibovitz's buffer was gently removed from the centrifuge tube, and then 750 μL of 0.25% trypsin-EDTA and 75 μL of 0.1% DNase (2000 U/mL) were added to digest at 37° C. for 15 min. 750 μL of DMEM medium containing 5% FBS was added to stop the digestion. The cells were mixed well, and centrifuged at 1000 rpm for 5 minutes. Trypins/DNase mixture was removed, and 750 μL of Neurobasal medium (B-27, Glutamax, P/S) was added. The cells were mixed by gently pipetting with a pipette for 30 times. The cell suspension was filtered with a 40 µm filter and transferred to another new 50 mL centrifuge tube. 10 μL of the cell suspension was added to 90 μL of DMEM (diluted 10 times), and 10 μL of the liquid mixture was placed on a hemocytometer so that the suspension filled between the cover slip and the counting plate for counting. The cells in the four large grids of the plate were counted, wherein for the cells across the line, only the cells on the left and upper side lines were counted. The following formulas were used:
Number of cells/mL=total number of cells in the four large grids/4×10^4/mL
Total number of cells/mL=total number of cells in the four large grids/4×10^4/mL×dilution factor.
After counting, the cells were diluted with Neurobasal selection medium so that 1 mL of Neurobasal culture medium contained 0.5×10^6 cells.
200 μL of PDL solution previously heated in a 37° C. water bath was added to each well of a 6-well plate, and incubated at 37° C. overnight to allow PDL to evenly coat the well plate. The PDL solution was absorbed and the plate was washed twice with PBS. Before use, the PBS remaining on the plate was absorbed and the cover was opened to dry the plate in a super clean bench. 2 mL of cell suspension was added to each well (37° C., 5% CO2), and the cells were cultured until adherence. The culture medium was replaced and the culture continued for 3 days, and then the growth status of neurons was observed. Every other 3 days, half of the medium was removed and replaced with fresh complete medium. The culture continued until the primary cortical neuron cells mature (usually mature on the 14th day of culture).
After the primary cortical neuron cells have matured, appropriate amount of freshly prepared culture medium was added until final volume in each well was 2 mL. The experiment included a blank control group (Vehicle), a positive control group BDNF (10 ng/mL), a control compound group (500 nM), and 6 test compound groups (500 nM). Three repeats were set for each dose. After incubating at 37° C. for 10 min, the culture solution was discarded and the cells were washed with pre-chilled PBS, and then 40 μL of pre-chilled lysate (RIPA buffer 10 mL and protease and phosphatase inhibitor 100 μL) was added to each well for lysis on ice for 30 min. After lysis, the cell was crushed by ultrasonic cell crusher, centrifuged at 14000 rpm for 20 min at 4° C. The supernatant was transferred to a new 1.5 mL centrifuge tube to extract protein. Western blotting experiments were used to detect the protein levels of (A) p-TrkB and t-TrkB; (B) p-AKT and t-AKT.
The software Sigmaplot 13.0 was used for statistical analysis of the data, and the data of each group was expressed as mean±standard error (x±SEM). […]

[2] = test system: Phospho-Akt S473; experiment: ELISA analysis of Phospho-Akt S473 in primary cortical neuron cells; type: cell-based, mouse; conditions: 500 nM, 10 min at 37° C.
Description: The primary cortical neuron cells were cultured in the same way as in Example 21, and after maturity, appropriate amount of freshly prepared culture medium was added until final volume in each well was 2 mL. The experiment included a blank control group (Vehicle), a positive control group BDNF (10 ng/mL), a control compound group (500 nM), and 6 test compound groups (500 nM). Three repeats were set for each dose. After incubating at 37° C. for 10 min, the culture solution was discarded and the cells were washed with pre-chilled PBS, and then 40 μL of pre-chilled lysate (RIPA buffer 10 mL and protease and phosphatase inhibitor 100 μL) was added to each well for lysis on ice for 30 min. After lysis, the cell was crushed by ultrasonic cell crusher, centrifuged at 14000 rpm for 20 min at 4° C. The supernatant was transferred to a new 1.5 mL centrifuge tube to extract protein. The p-Akt ELISA experiment quantitatively detected the intracellular p-Akt protein level.
A series of p-Akt standard solutions with different concentrations were prepared, and the absorbance value was measured to make a standard curve. Phospho-Akt1 (Ser473) sandwich ELISA kit was purchased from Cell Signaling Technology (catalog number 7160). The antibody was coated in a 96-well plate at 4° C. overnight and was washed. The coated plate was blocked with 2% bovine serum albumin (BSA), and after sufficient washing, 100 μL of sample diluent (supplied in the kit) was added to each well to dilute the extracted protein. The plate was incubated overnight at 4° C. After washing 4 times with 200 μL of washing buffer (supplied in the kit), 100 μL/well of detection antibody was added and the plate was incubated at 37° C. for 1 hour. After 4 washes, 100 μL of HRP-conjugated secondary antibody (supplied in the kit) was added and the plate was incubated at 37° C. for 30 minutes. After the final wash, 100 μL of TMB substrate was added to each well and the plate was incubated at 37° C. for 10 minutes. TMB was use as a substrate to detect the signal, since TMB can be oxidized to produce a blue solution. The reaction was stopped by adding 100 μL/well stop solution, and the test result can remain stable within one hour after the stop of the reaction. The value of each well at 450 nm and 650 nm was detected using a microplate reader. The optical density (OD) was determined by subtracting the reading at 650 nm (disturbance from the solution itself) from the reading at 450 nm. According to the OD value corresponding to the standard curve, the p-Akt concentration in each well was obtained.
the data of each group was expressed as mean standard error (x±SEM). The ratio of the detection results of each positive control group (BNDF), control compound group (the same control compound as in Example 21) and each test compound group to the blank control group was used as an indicator to compare the p-Akt test results of the positive control group, control compound group, and each test compound group. One-way ANOVA and LSD post-hoc test were used to compare the measurement data among multiple groups, and P<0.05 was considered statistically significant.

SMILES	Relative intensity of p-AKT/t-AKT protein [1]	Relative content of p-Akt protein (ELISA, ratio to blank control group) [2] [%]
O=c1cc(-c2ccc(N3CCCCC3)cc2)oc2c(O)c(O)ccc12 [Example 1, 7,8-dihydroxy-2-(4-(piperidin-1-yl)phenyl)-4H-chromen-4-one]	219.663 ± 8.085	212.00±2.122
COc1ccc2c(=O)cc(-c3ccc(N4CCCCC4)cc3)oc2c1OC [Example 2, 7,8-dimethoxy-2-(4-(piperidin-1-yl)phenyl)-4H-chromen-4-one]	209.651 ± 3.294	221.67±3.69
CN(C)C1CCN(c2ccc(-c3cc(=O)c4ccc(O)c(O)c4o3)cc2)CC1 [Example 3, 2-(4-(4-(dimethylamino)piperidin-1-yl)phenyl)-7,8-dihydroxy-4H-chromen-4-one]	240.213 ± 8.376	247.33±3.18
CC1(C)CCN(c2ccc(-c3cc(=O)c4ccc(O)c(O)c4o3)cc2)CC1 [Example 4, 2-(4-(4,4-dimethylpiperidin-1-yl)phenyl)-7,8-dihydroxy-4H-chromen-4-one]	215.698 ± 5.487	224.33±3.27
CC1CC(C)CN(c2ccc(-c3cc(=O)c4ccc(O)c(O)c4o3)cc2)C1 (stereo not shown) [Example 5, 2-(4-(3,5-dimethylpiperidin-1-yl)phenyl)-7,8-dihydroxy-4H-chromen-4-one]	219.904 ± 6.954	217.32±2.57
